Experimental data published in article PMC9532399, “The lysosomal transporter TAPL has a dual role as peptide translocator and phosphatidylserine floppase” (Nature Communications, 2022).

Molecular target: T1, mouse TAPL ΔTMD0 (Mus musculus, UniProt Q9JJ59)
T1 construct: thrombin cleavage site (C); eGFP (C); 10XHis (C); made in house; host or cells: Trichoplusia ni High Five (Hi5) insect cells, baculovirus (pVL1393)
T1 sequence (Q9JJ59 143-762): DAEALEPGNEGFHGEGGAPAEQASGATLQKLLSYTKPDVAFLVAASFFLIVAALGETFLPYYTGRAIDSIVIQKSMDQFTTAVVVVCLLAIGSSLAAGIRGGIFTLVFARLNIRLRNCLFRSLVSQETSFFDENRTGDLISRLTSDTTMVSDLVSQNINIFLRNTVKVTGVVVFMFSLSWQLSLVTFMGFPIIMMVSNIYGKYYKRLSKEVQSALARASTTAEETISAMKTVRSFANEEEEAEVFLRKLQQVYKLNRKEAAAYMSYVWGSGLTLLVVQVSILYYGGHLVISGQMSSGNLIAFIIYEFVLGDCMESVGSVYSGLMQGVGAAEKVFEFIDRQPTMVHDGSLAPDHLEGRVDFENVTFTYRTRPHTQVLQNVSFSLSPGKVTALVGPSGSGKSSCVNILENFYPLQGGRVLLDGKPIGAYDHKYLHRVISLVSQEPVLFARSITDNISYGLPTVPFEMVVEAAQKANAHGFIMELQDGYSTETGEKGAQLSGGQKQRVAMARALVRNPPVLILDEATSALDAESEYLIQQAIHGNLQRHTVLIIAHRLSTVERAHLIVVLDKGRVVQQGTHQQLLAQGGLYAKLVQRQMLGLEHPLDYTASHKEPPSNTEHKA
Assay: Dithionite-based flip-flop (floppase) assay of NBD*-labeled lipids, ΔTMD0 proteoliposomes
Assay type: biochemical
Details: for fluorescence remaining after dithionite: 10 mM dithionite
Method: All lipids used in reconstitution were purchased from Avanti Polar Lipids, Inc. (purity > 99%). The in vitro flip–flop assay was performed using NBD* dye-labeled proteoliposomes as described previously. Briefly, E. coli polar lipids and egg PC were mixed in a 1:1 molar ratio, and 0.5% (mol/mol) NBD*-lipid was added. The lipid mixture was then dried under nitrogen gas. The NBD*-lipids used were 18:1-06:0 NBD*-PS (1-oleoyl-2-{6-[(7-nitro-2-1,3-benzoxadiazol-4-yl)amino]hexanoyl}-sn-glycero-3-phosphoserine), 18:1-06:0 NBD*-PC (1-oleoyl-2-{6-[(7-nitro-2-1,3-benzoxadiazol-4-yl)amino]hexanoyl}-sn-glycero-3-phosphocholine), 18:1-06:0 NBD*-PG (1-oleoyl-2-{6-[(7-nitro-2-1,3-benzoxadiazol-4-yl)amino]hexanoyl}-sn-glycero-3-[phospho-rac-(1-glycerol)]), 18:1-06:0 NBD*-PE (1-oleoyl-2-{6-[(7-nitro-2-1,3-benzoxadiazol-4-yl)amino]hexanoyl}-sn-glycero-3-phosphoethanolamine), and 25-NBD*-Cholesterol (25-[N-[(7-nitro-2-1,3-benzoxadiazol-4-yl)methyl]amino]−27-norcholesterol). Thin lipid films were solubilized in 20 mM HEPES–NaOH pH 8.0, 200 mM NaCl and 5% (v/v) glycerol, incubated at RT for 30 min and subjected to 5 freeze–thaw cycles. After extrusion with a Mini-Extruder at 65 °C, final lipid concentrations were determined by phosphorus assays. Briefly, 10 μL of extruded lipid was added to 10 μL of 2% (w/v) ammonium molybdate and 300 μL of concentrated perchloric acid. The mixture was heated at 250 °C for 30 min, then cooled to RT and mixed with 1.5 mL of 0.4% (w/v) ammonium molybdate and 250 μL of 9% (w/v) L-ascorbic acid. It was again heated at 100 °C for 6 min and cooled to RT. Lipid concentrations were calculated from the absorbance at 820 nm using a standard curve prepared with NaH2PO4 solution. After accurately determining the lipid concentration, DM-purified protein and 5 mM lipid suspension (solubilized in 5 mM DM) were mixed 1:25 (w/w). After incubation at 4 °C for 1.5 h, DM detergent was removed with 75 mg Bio-beads SM-2 by periodic gentle shaking for 1 h at 4 °C (Supplementary Fig. 5a). The beads were replaced once, followed by an additional incubation at 4 °C for 2 h to completely remove detergent. The resulting proteoliposomes were collected by ultracentrifugation at 200,000×g for 1.5 h at 4 °C.
To measure the flip–flop activity, 10 μL of 2 mM NBD*-labeled proteoliposomes were added to 100 μL of reaction buffer (20 mM HEPES–NaOH pH 8.0, 200 mM NaCl, 5 mM ATP and 5% (v/v) glycerol) in the presence of 2 mM MgCl2 (or NaCl), and incubated at 37 °C for 1 h. The mixture was transferred to a 96-well plate and time-dependent fluorescence (λex/λem = 460/538 nm) was recorded every 30 s for 26 min using a fluorescence spectrophotometer (Gemini XPS). After the baseline fluorescence had stabilized, 10 mM sodium dithionite was added to quench the fluorescence of NBD*-lipid present in the outer leaflets of the liposomes. The initial rapid drop and subsequent slow decline in fluorescence intensity were monitored. When a new steady state was established, 1% (v/v) Triton X-100 was added to completely disrupt the liposomes. The net percentage of NBD*-lipid translocated across the lipid bilayer was calculated from the following equation[72]: the percentage of protected NBD*-lipid in the inner leaflet = [(FD−F0)/(FT−F0)]×100, and that of accessible NBD*-lipid in the outer leaflet = [(FT−FD)/(FT−F0)]×100, where FT is the total fluorescence of the sample before the addition of dithionite, FD is the fluorescence of the sample after quenching with dithionite, and F0 is any residual fluorescence of the sample after solubilization with Triton X-100. Fluorescence values (FT, FD, F0) were calculated as the averages of 5 points on the respective plateau lines. The ΔTMD0-mediated lipid floppase activity was determined by subtracting the percentage of NBD*-lipid fluorescence measured in the presence of Na^+/ATP from that measured in the presence of Mg^2+/ATP.

## CCCCCCCC/C=C\CCCCCCCC(=O)OC[C@H](COP(=O)(O)OC[C@H](N)C(=O)O)OC(=O)CCCCCNc1ccc([N+](=O)[O-])c2nonc12 [NBD*-PS, 1-oleoyl-2-{6-[(7-nitro-2-1,3-benzoxadiazol-4-yl)amino]hexanoyl}-sn-glycero-3-phosphoserine]
Mg2+/ATP minus Na+/ATP
  difference of inner leaflet fluorescence with and without hydrolysable ATP: ~ 4.5%
Mg2+/ATP minus Na+/ATP, 5 mM ATP, 37 °C 1 h, no peptide, no POPS, mean n=9
  NBD*-PS fluorescence intensity (net percentage transported outer to inner leaflet): 4.53%
Mg2+/ATP minus Na+/ATP, with 9-mer peptide, mean n=5
  NBD*-PS fluorescence intensity (net percentage transported): 2.081%
Mg2+/ATP minus Na+/ATP, with 10% (mol/mol) POPS, mean n=5
  NBD*-PS fluorescence intensity (net percentage transported): 2.6371%
Mg2+/ATP, % of original value
  fluorescence remaining after dithionite: ~ 36.2%
NBD*-labeled lipid, PE, PG, PC and cholesterol data not shown
  ATP-dependent lipid transport by ΔTMD0: high
Na+/ATP, % of original fluorescence
  fluorescence remaining after dithionite: ~ 31.7%
No peptide, no POPS, replicate I
  NBD*-PS fluorescence intensity (net percentage transported): 5.0115%
No peptide, no POPS, replicate II
  NBD*-PS fluorescence intensity (net percentage transported): 5.082%
No peptide, no POPS, replicate III
  NBD*-PS fluorescence intensity (net percentage transported): 5.234%
No peptide, no POPS, replicate IV
  NBD*-PS fluorescence intensity (net percentage transported): 3.911%
No peptide, no POPS, replicate IX
  NBD*-PS fluorescence intensity (net percentage transported): 4.577%
No peptide, no POPS, replicate V
  NBD*-PS fluorescence intensity (net percentage transported): 3.922%
No peptide, no POPS, replicate VI
  NBD*-PS fluorescence intensity (net percentage transported): 4.247%
No peptide, no POPS, replicate VII
  NBD*-PS fluorescence intensity (net percentage transported): 4.366%
No peptide, no POPS, replicate VIII
  NBD*-PS fluorescence intensity (net percentage transported): 4.416%
With 9-mer peptide, replicate I
  NBD*-PS fluorescence intensity (net percentage transported): 2.499%
With 9-mer peptide, replicate II
  NBD*-PS fluorescence intensity (net percentage transported): 2.553%
With 9-mer peptide, replicate III
  NBD*-PS fluorescence intensity (net percentage transported): 1.795%
With 9-mer peptide, replicate IV
  NBD*-PS fluorescence intensity (net percentage transported): 1.566%
With 9-mer peptide, replicate V
  NBD*-PS fluorescence intensity (net percentage transported): 1.9894%
With 10% (mol/mol) POPS, replicate I
  NBD*-PS fluorescence intensity (net percentage transported): 2.817%
With 10% (mol/mol) POPS, replicate II
  NBD*-PS fluorescence intensity (net percentage transported): 2.678%
With 10% (mol/mol) POPS, replicate III
  NBD*-PS fluorescence intensity (net percentage transported): 2.164%
With 10% (mol/mol) POPS, replicate IV
  NBD*-PS fluorescence intensity (net percentage transported): 2.878%
With 10% (mol/mol) POPS, replicate V
  NBD*-PS fluorescence intensity (net percentage transported): 2.648%
ΔTMD0 minus E664Q
  true active floppase activity of the transporter: ~ 2.6%

## RRYQNSTC^5-IAFL [9-mer, 5-IAF-labeled peptide of 9 residues (RRYQNSTC^5-IAFL)]
10% (mol/mol) unlabeled POPS, or presence of the 9-mer peptide
  effect on translocation of NBD*-PS: inhibited
